Measured values published in ChEMBL document CHEMBL1287778, “Antifungal agents. Part 5: synthesis and antifungal activities of aminoguanidine derivatives of N-arylsulfonyl-3-acylindoles” (2010).

How the values were obtained:
Type in all cases: functional
[1] = test system: Bipolaris sorokiniana; assay: Antifungal activity against Bipolaris sorokiniana assessed as percent inhibition at 100 ug/ml
[2] = test system: Alternaria alternata; assay: Antifungal activity against Alternaria alternata assessed as percent inhibition at 100 ug/ml
[3] = Antifungal activity against Fusarium oxysporum f. sp. cucumerinum assessed as percent inhibition at 100 ug/ml
[4] = test system: Fusarium graminearum; assay: Antifungal activity against Fusarium graminearum assessed as percent inhibition at 100 ug/ml
[5] = test system: Alternaria brassicae; assay: Antifungal activity against Alternaria brassicae assessed as percent inhibition at 100 ug/ml
[6] = test system: Pyricularia oryzae; assay: Antifungal activity against Pyricularia oryzae assessed as percent inhibition at 100 ug/ml
[7] = test system: Fusarium oxysporum f. sp. vasinfectum; assay: Antifungal activity against Fusarium oxysporum f. sp. vasinfectum assessed as percent inhibition at 100 ug/ml

Structure (SMILES)	inhibition at 100 µg/mL [1] [%]	inhibition at 100 µg/mL [2] [%]	inhibition [3] [%]	inhibition at 100 µg/mL [4] [%]	inhibition at 100 µg/mL [5] [%]	inhibition at 100 µg/mL [6] [%]	inhibition at 100 µg/mL [7] [%]
Cc1cc(O)no1 [HYMEXAZOL]	61.9	70.8	60	68	58	75.1	63.2
Cc1ccc2c(/C=N/NC(=N)N)cn(S(=O)(=O)c3ccccc3)c2c1	59.5	69.2	41	47.8	48.4	64.2	40
COc1ccc(S(=O)(=O)n2cc(/C(C)=N/NC(=N)N)c3ccc(C)cc32)cc1	35	42.5	25.8	44.8	18.2	43	24.2
N=C(N)N/N=C/c1cn(S(=O)(=O)c2ccccc2)c2ccccc12	66.5	61.5	33.7	46.3	38.8	57.8	47.8
CCCCC/C(=N\NC(=N)N)c1cn(S(=O)(=O)c2ccc(C)cc2)c2cc(C)ccc12	50.5	54.7	39.8	28.5	22.8	44.5	33.3
Cc1ccc(S(=O)(=O)n2cc(/C=N/NC(=N)N)c3cc(C#N)ccc32)cc1	17	15.2	6.55	13.3	10.4	16.3	13
C/C(=N\NC(=N)N)c1cn(S(=O)(=O)c2cccc([N+](=O)[O-])c2)c2cc(C)ccc12	37.6	50.6	34.9	20.6	33.3	50.7	23.2
C/C(=N\NC(=N)N)c1cn(S(=O)(=O)c2ccccc2)c2cccc(C)c12	82.3	79.2	63.1	52.3	52	79.6	64.9
Cc1ccc(S(=O)(=O)n2cc(/C=N/NC(=N)N)c3ccccc32)cc1	66	65.3	36.5	44.1	34.9	56.7	51.8
C/C(=N\NC(=N)N)c1cn(S(=O)(=O)c2ccccc2)c2ccccc12	75.3	73.5	49.7	37.8	40.2	74.3	60
